Tests used:
Format in all cases: cell-based
Cox B virus [1] = assay: Plaque reduction assay against Cox B virus
Experimental: (§1) Compounds: 10 mg were dissolved in 1 mL (10% DMSO and 90% deionized water), sterilized by 1% antibiotic–antimycotic mixture and stored in −20.
(§2) Cells: Vero cell line was used. The cells were propagated in DMEM medium (Lonza, USA) supplemented with 10% fetal bovine serum (Gibco, USA), 1% antibiotic–antimycotic mixture (Lonza, USA).
Virus: Cox B virus was propagated and titrated to give final count of 0.9 × 10^5 viral particle/mL.
This test was done according to Tebas et al.[47], In a 12-well plate Vero cells (10^5 cells/mL) were cultivated for 1 day at 37 °C. The Cox B virus was mixed with the safe concentration of the compound and incubated for 1 h at 37 °C before being added to the cells. Following the removal of the growth media, the cells were injected with virus-extract combinations ([…]) and then rinsed with PBS (Phosphate Buffer Saline). Following a one-hour contact period for virus adsorption, the cell monolayer was supplemented with one milliliter of Dulbecco’s Modified Eagles Media (DMEM) containing 2% agarose. The plates were then allowed to solidify and incubated at 37 °C until the development of viral plaques. Formalin (10%) was added for 2 h then plates were stained with crystal violet. Control wells were included where untreated virus was incubated with Vero cells and finally plaques were counted and percentage reduction in plaques formation in comparison to control wells was recorded as following:
% inhibition = (viral count(untreated) - viral count(treated))/viral count(untreated)X100.

Cox B virus [2] = assay: Mechanism of virus inhibition: viral adsorption; conditions: for Viral count (treated): Adsorption, control 1.6 × 10^7
Experimental: (§3) For a compound having an antiviral effect, this might be due to the effect on viral replication, the effect on viral adsorption, or the direct effect on the viral particle.
Viral adsorption[49] Vero cells were cultivated in a 6-well plate (10^5 cells/mL) for 1 day at 37 °C. The compound was applied at different concentrations in […] medium without supplements and coincubated with the cells for 2 h at 4 °C. The virus was coincubated with the pretreatment cells for one hour after the unadsorbed extract was eliminated by washing the cells three times in PBS. Next, 2 mL of DMEM supplemented with 2% agarose were added. The plates were left to solidify and incubated till the appearance of plaques.

Vero cells = assay: Cytotoxicity assay on Vero cells (microscopic morphology); parameters: key to Cytotoxicity on Vero cells (cell sheet affected): -: Safe concentration; + 1, +2, + 3, +4: about 25, 50, 75, 100% of cell sheet was affected respectively; + 1, +2, + 3, +4: about 25, 50, 75, 100% of cell sheet was affected respectively; + 1, +2, + 3, +4: about 25, 50, 75, 100% of cell sheet was affected respectively; + 1, +2, + 3, +4: about 25, 50, 75, 100% of cell sheet was affected respectively; M: masked (color of compounds made cells unseen); conditions: for Cytotoxicity on Vero cells (cell sheet affected): 24 h, morphological changes
Experimental: as §1, §2
Cytotoxic effect of compounds was measured by inoculation different doses of compounds on tested cells then examining them microscopically after 24 h to determine any morphological changes that appeared on cells as a result of being subjected to the compounds[46]. Vero cells were seeded onto 96-well plates, which were then incubated for the whole night. After a 24-hour incubation period at 37 °C in a humidified incubator with 5% CO2, compounds were injected at concentrations of 10, 20, 30, 40, 50, 60, 70, 80, 90, and 100 µg /100 µl. Any morphological changes were monitored under a microscope.

Cox B virus [3] = assay: Mechanism of virus inhibition: virucidal; conditions: for Viral count (treated): Virucidal, control 1.6 × 10^7
Experimental: For a compound having an antiviral effect, this might be due to the effect on viral replication, the effect on viral adsorption, or the direct effect on the viral particle. Virucidal[50] the assay was conducted in a 6-well plate with Vero cells that were cultured for two days at 37 °C (10^5 cells/mL). A volume of […] serum-free DMEM containing 1.5 × 10^2 PFU from Cox B was added to the concentration of the compound resulting in viral inhibition, after 1 h incubation, The mixture was diluted three times using serum-free media, which leaves almost no extract but still permits the existence of virus particles to develop on Vero cells. 100 mL of each dilution was then introduced to the Vero cell monolayer. The DMEM overlayer was added to the cell monolayer after a one-hour contact period. The plates were left to solidify then incubated till the appearance of plaques.

Cox B virus [4] = assay: Mechanism of virus inhibition: viral replication; conditions: for Viral count (treated): Replication, control 1.6 × 10^7
Experimental: as §3
Viral replication[48] Assay was carried out in a 6-well plate where Vero cells were cultivated (10^5 cells/ml) for 1 day at 37 °C. The cells were directly inoculated with the virus. After an hour of incubation, unadsorbed viral particles were eliminated by repeatedly washing the cells with PBS.
The compound was applied at different concentrations, and after 1 h contact time, 2 mL of DMEM medium supplemented with 2% agarose were added to the cell monolayer. Plates were left to solidify then incubated till the appearance of plaques.

COc1ccc(OC)c(C=C2/C(=N/Nc3nc(C)c(/N=N/c4ccccc4)s3)c3ccccc3/C2=N\Nc2nc(C)c(/N=N/c3ccccc3)s2)c1 [7a, 2,2’-(((1E,3E)−2-(2,5-dimethoxybenzylidene)−1H-indene-1,3(2H)-diylidene)bis(hydrazin-1-yl-2-ylidene))bis(4-methyl-5-((E)-phenyldiazenyl)thiazole)]
Viral count (treated) (Cox B virus [1]; 20 ug/mL): 0.54 × 10 ^7 | Viral count (treated) (Cox B virus [1]; 40 ug/mL): 0 × 10 ^7 | inhibition at 20 µg/mL (Cox B virus [1]; Vero): 66% | inhibition at 40 µg/mL (Cox B virus [1]; Vero): 100% | Antiviral activity against Cox B virus (in words) (Cox B virus [1]; at tested concentrations): high viral inhibition | Effect on viral adsorption (in words) (Cox B virus [2]): inhibiting both viral adsorption and replication | inhibition at 20 µg/mL (Cox B virus [2]): 42% | inhibition at 40 µg/mL (Cox B virus [2]): 57% | inhibition at 60 µg/mL (Cox B virus [2]): 85% | Viral count (treated) (Cox B virus [2]; 20 µg/ml): 0.92 × 10^7 | Viral count (treated) (Cox B virus [2]; 40 µg/ml): 0.68 × 10^7 | Viral count (treated) (Cox B virus [2]; 60 µg/ml): 0.24 × 10^7 | Cytotoxicity on Vero cells (cell sheet affected) (Vero cells; 10 µg/100µl): - | Cytotoxicity on Vero cells (cell sheet affected) (Vero cells; 20 µg/100µl): - | Cytotoxicity on Vero cells (cell sheet affected) (Vero cells; 30 µg/100µl): - | Cytotoxicity on Vero cells (cell sheet affected) (Vero cells; 40 µg/100µl): - | Cytotoxicity on Vero cells (cell sheet affected) (Vero cells; 50 µg/100µl): - | Cytotoxicity on Vero cells (cell sheet affected) (Vero cells; 70 µg/100µl): M | Cytotoxicity on Vero cells (cell sheet affected) (Vero cells; 80 µg/100µl): M | Cytotoxicity on Vero cells (cell sheet affected) (Vero cells; 90 µg/100µl): M | Cytotoxicity on Vero cells (cell sheet affected) (Vero cells; 100 µg/100µl): M | Safety effect on Vero cells (in words) (Vero cells; Table 1, 24 h): dense and coloured that made masking to the cell sheet | inhibition at 20 µg/mL (Cox B virus [3]): 0% | inhibition at 40 µg/mL (Cox B virus [3]): 12% | inhibition at 60 µg/mL (Cox B virus [3]): 37% | Viral count (treated) (Cox B virus [3]; 20 µg/ml): 1.6 × 10^7 | Viral count (treated) (Cox B virus [3]; 40 µg/ml): 1.4 × 10^7 | Viral count (treated) (Cox B virus [3]; 60 µg/ml): 1 × 10^7 | Effect on viral replication (in words) (Cox B virus [4]): inhibiting both viral adsorption and replication | inhibition at 20 µg/mL (Cox B virus [4]): 37% | inhibition at 40 µg/mL (Cox B virus [4]): 48% | inhibition at 60 µg/mL (Cox B virus [4]): 56% | Viral count (treated) (Cox B virus [4]; 20 µg/ml): 1 × 10^7 | Viral count (treated) (Cox B virus [4]; 40 µg/ml): 0.8 × 10^7 | Viral count (treated) (Cox B virus [4]; 60 µg/ml): 0.7 × 10^7
